From patent publication US20210275646A1, “PHARMACOLOGIC TREATMENT FOR RIGHT VENTRICULAR FAILURE” (The Trustees of Columbia University in the City of New York, priority 2018, published 2021) come the findings set out here.

Format in all cases: cell-based
For data set [1], the system named is neonatal rat ventricular myocytes (NRVMs). The experiment in a line: LC3-II/I ratio (Western) in NRVMs treated with bafilomycin A or chloroquine, canonical versus non-canonical autophagy. As to conditions: BafA 100 nM, 1 h; si-Wipi1 and si-scramble transfected NRVMs.
Data set [2] shares this test system. Description: RT-qPCR of transcript expression in siRNA-transfected NRVMs with or without aldosterone. As for the experimental part: Total RNA were extracted from human and mouse tissues and cultured neonatal rat ventricular myocytes (NRVMs) using the Tissue RNA Purification Kit (Norgen Biotek) and the TRIzol reagent (Invitrogen) respectively, according to the manufacturer's instructions. RNA was quantified with the NanoDrop-2000c instrument (Thermo Scientific), and cDNA synthesis was performed with iScript reverse transcription Supermix (BioRad). Quantitative RT-PCR was performed on a CFX96 thermal cycler using the iTac Universal SYBR green Supermix (Biorad) and specific primers. Gene expression was normalized to Rps13, and relative mRNA expression was quantified using the ΔΔCt method. For data robustness and reproducibility, target genes were also normalized to Rps15.
(§1) Neonatal Sprague-Dawley rats were euthanized by decapitation within the first 24 h after birth and beating hearts heart fragments were rinsed in 1×PBS without pen/strep and digested in 0.1% Trypsin solution in 1×PBS (0.8 ml of 0.1% Trypsin solution per heart) for 15 min at 37° C. The supernatant was collected and the remaining tissue was further digested repeatedly for a total of 10 times, with serial collection of supernatant. Digestion was stopped on ice with 10% FBS, and cells were collected from pooled supernatant by centrifugation at 1500 rpm for 5 min at room temperature. The cell pellet was resuspended in an adequate volume of complete medium. Cells were counted and plated in 10 cm dishes for ˜1 h at 37° C., 5% CO2 at a density of 10×10^6 cells per plate (pre-plating). During this pre-plating step, non-myocytes including fibroblasts adhere to the plate, while NRVMs remain in suspension. The supernatant cells were subsequently seeded on protamine sulfate coated dishes (10^5 cells/cm^2) and were left to attach for 12 h. NRVM primary cultures were maintained in MEM medium supplemented with 10% FBS, penicillin (100 units/ml)/streptomycin (100 μg/ml) (Gibco-Fisher Scientific). 1-β-D-Arabinofuranosyl-cytosine (AraC 20 μM, Calbiochem-Sigma) was also added to the culture medium to inhibit fibroblast proliferation.
At 24 h following isolation, NRVMs were transfected with siRNAs using the Dharmafect #1 transfection reagent according to the manufacturers protocol (Dharmacon). NRVMs were plated at a density of ˜10^5 cells/cm^2 and transfected with 10 nM of a pool of either non-targeting siRNA (siRNA-scramble control) or siRNAs against the rat Wipi1 gene (siRNA-Wipi1). All siRNAs were ON-TARGETplus SMARTpool siRNAs (Dharmacon). Following a 24 h transfection period, the medium was changed to serum-free DMEM:F12 supplemented with penicillin (100 units/ml)/streptomycin (100 μg/ml). […] Serum-free DMEM:F12 culture medium without any aldosterone was used as a comparative control to neurohormone activation.

Data set [3] has the same test system. The experiment in a line: Western blot of protein expression in siRNA-transfected NRVMs with or without aldosterone. As for the experimental part: Total proteins were extracted from tissues and NRVMs with the T-PER lysis buffer (Thermo Scientific) supplemented with the Halt Protease and Phosphatase Inhibitor Cocktail (Thermo Scientific). Protein extraction from mouse tissues was performed using a BeadBug Benchtop Homogenizer and zirconium beads (Sigma). Protein quantification was performed with the BCA reagent (Pierce). Total protein samples were resolved on NuPAGE 4-12% Bis-Tris gradient gels (Invitrogen) and transferred to 0.2 μm Nitrocellulose membranes (Biorad) for immunoblotting. Membranes were stained with the LI-COR Revert Total Protein Stain kit and analyzed as per manufacturer's instructions. Membranes were blocked and then incubated with primary antibodies as detailed in Table 2 at 4° C. overnight. Membranes were then washed and incubated with the appropriate LI-COR secondary antibody. Membranes were imaged using the ODYSSEY-Classic infrared system from LI-COR. Protein expression was normalized to total protein.
as §1
(§2) At 24 h following isolation, NRVMs were transfected with siRNAs using the Dharmafect #1 transfection reagent according to the manufacturers protocol (Dharmacon). NRVMs were plated at a density of ˜10^5 cells/cm^2 and transfected with 10 nM of a pool of either non-targeting siRNA (siRNA-scramble control) or siRNAs against the rat Wipi1 gene (siRNA-Wipi1). All siRNAs were ON-TARGETplus SMARTpool siRNAs (Dharmacon). Following a 24 h transfection period, the medium was changed to serum-free DMEM:F12 supplemented with penicillin (100 units/ml)/streptomycin (100 μg/ml). After ˜12 h of serum-starvation, the cells were incubated with aldosterone […] in serum-free DMEM:F12 culture medium for 48 h at 37° C., 5% […]. Serum-free DMEM:F12 culture medium without any aldosterone was used as a comparative control to neurohormone activation.
On the technique in general: Immunoblotting shows a protein as a band on a membrane.

For data set [4] the test system is unchanged. Description: MitoSOX Red analysis of mitochondrial superoxide level. As to conditions: Aldo 1 μM 48 h, si-scramble control NRVMs. As for the experimental part: Neonatal rat ventricular myocytes (NRVMs) were transfected with scramble or Wipi1-specific siRNAs and then stimulated with aldosterone (Aldo, 1 μM, 48 h) or hydrogen peroxide (H2O2, 50 μM, 2 h).
as §2
Mitochondrial superoxide level was monitored with the MitoSOX™ Red mitochondrial superoxide indicator for live-cell imaging (Molecular Probes). […] The red fluorescent signal was measured with ImageJ software and normalized to the brightfield signal.

For data set [5] the test system is unchanged. The experiment in a line: MTT assay of cell viability. As for the experimental part:
To assess NRVM viability, the Vybrant MTT cell proliferation assay kit was used (Molecular probes). Initially, NRVM were seeded on 96-well plates at ˜3×10^4 cells/well (˜10^5 cells/cm^2, the same density as in other assays) and were treated identically as in the siRNA transfection assays (including transfection, serum starvation and neurohormonal stimulation). In addition, increasing number of cells ranging from 2×10^4 to 14×10^4 were used to create a standard curve and to calculate the linearity between absorbance at 595 nm and cell number. Prior to labelling with MTT, the medium was removed and 100 μl of fresh medium was added to each well. The same amount of medium (100 μl) without cells was used as negative control (blank). The cells and the negative control were labeled with 10 μl of 12 mM MTT/well and were incubated at 37° C. for 4 h. Subsequently, 100 μl of SDS-HCL solution was added to each well, mixed thoroughly and incubated for 4 h at 37° C. Finally, the absorbance at 595 nm was measured on a plate reader and the % of cell viability was calculated using the formula:
% of viability=(A595sample/A595reference)×100
For orientation: Tetrazolium assays rely on reduction of a dye to a coloured formazan, in cell work by metabolically active cells.

The mark [6] stands for this setting: NRVMs, si-Wipi1 vs si-scramble, with or without aldosterone.
Where [7] appears, read: aldosterone 48 h, si-scramble control NRVMs, serum starved.

Molecules are shown by their SMILES.

Take `CO/C1=C\C(C)=C\[C@@H](C)[C@@H](O)[C@@H](C)C/C(C)=C/C=C/[C@H](OC)[C@@H]([C@@H](C)[C@@H](O)[C@H](C)[C@@]2(O)C[C@@H](O)[C@H](C)[C@@H](C(C)C)O2)OC1=O` [BafA, bafilomycin A]: in data set [1], the LC3-II/I ratio entry is “increased”.
In the case of `C[C@]12CCC(=O)C=C1CC[C@@H]1[C@@H]2[C@@H](O)C[C@]2(C=O)[C@@H](C(=O)CO)CC[C@@H]12` [aldosterone], in data set [2] (setting [6]), the “Snap47 or Prdx5 transcript expression” value is listed as “Neither silencing Wipi1 nor stimulation with aldosterone affected”. For the same compound, the Map4 transcript levels entry in data set [2] (aldosterone stimulation, in either si-Wipi1 or si-scramble NRVMs) is given as “did not affect”. For the same compound, the Hspb6 transcript expression result in data set [2] (aldosterone, both si-Wipi1 and si-scramble NRVMs) was “stimulated”. Moreover, the “expression of Nppa, Nppb, Acta1, and Myh7 (fetal gene program)” value in data set [2] (si-scramble control NRVMs, Aldo 1 μM 48 h) is “significantly increased”. For the same compound, in data set [3] (setting [6]), the Hspb6 protein expression entry is “consistent with transcript data” and the “Snap47 or Prdx5 protein expression” value is reported as “Neither silencing Wipi1 nor stimulation with aldosterone affected”. The Ser16-HSPB6 phosphorylation entry in data set [3] (aldosterone 48 h, si-scramble NRVMs, serum starved) is reported as “did decrease”. Further, in data set [3] (setting [7]), the BECN1 expression result is recorded as “did not affect” and the LC3-lipidation entry was “did not affect”. The Map4 protein expression entry in data set [3] (aldosterone, si-scramble control NRVMs) is recorded as “did induce”. In addition, the mitochondrial superoxide levels result in data set [4] is recorded as “increased”. Besides, the cell viability entry in data set [5] is “Neither aldosterone stimulation nor silencing Wipi1 negatively impacted”.
